For 15 compounds, IC50 results are on record in patent EP4711371A1 (priority 2023, dated 2024).

Molecules are shown by their SMILES. Where two headings read alike, the source gives them in different places.

Type in all cases: cell-based
The test system of assay [1] is MDA-MB-453. Nature of the assay: In vitro proliferation inhibition assay of camptothecin derivatives (Payload), Test Example 1. To be noted: Homo sapiens, MDA-MB-453, 96 h, read-out: MDA-MB-453 IC50. The text has this: (§1) The control compounds used in the experiment were DXD (synthesized from EXD according to the synthesis method of patent EP2907824B1. EXD was purchased from MedChemExpress, catalog number: HY-13631A) and SN38 (purchased from Bide Pharmatech, catalog number BD8481). Their structural formulas are [drawing 515] respectively.
(§2) The cell lines used in this experiment were human breast cancer cells SK-BR-3, T47D, MDA-MB-453, human malignant melanoma cells A375, human lung squamous carcinoma cells NCI-H1703, and human gastric cancer cells NCI-N87. Cell suspensions were prepared in fresh cell culture medium containing 10% FBS and then diluted to a density of 5 × 10^4 cells/mL, 10×10^4 cells/mL, 100 µL per well was added to a 96-well cell culture plate (Thermo catalog number: 167425), and cultured at 37°C with 5% carbon dioxide for 24 h.
(§3) The test compounds of the present invention and the control compounds were each prepared to 10 mM stock solutions in DMSO, and the drugs were diluted with 5% FBS 1640 culture medium in a gradient of 50, 10, 2, 0.4, 0.08, 0.016, 0.0032, 0.00064, 0.000128, and 0 µM, with two replicates for each well.
(§4) 50 µL of cell supernatant was pipetted from each 96-well plate, followed by the addition of 50 µL of compound dilutions at final […] of 25, 5, 1, 0.2, 0.04, 0.008, 0.0016, 0.00032, 0.000064, and 0 µM. After mixing, the cells were cultured in a constant temperature CO2 incubator for 4 days. Cell supernatant was then added with 100 µL of detection reagent (5% FBS1640 medium and CCK-8 solution in a 10:1 ratio) and incubated in an incubator for 4 hours. […] was read on a microplate reader (TECAN, Spark), and data were analyzed using Graphpad Prism 8 software.

For assay [2], the system named is T47D. In words: cells. The following applies: Homo sapiens, 96 h.
Excerpt: as §1, §2, §3, §4

Another assay deals with SK-BR-3. Nature of the assay: In vitro proliferation inhibition assay of camptothecin derivatives (Payload), Test Example 1. The following applies: Homo sapiens, SK-BR-3, 96 h, read-out: SK-BR-3 IC50.
Excerpt: as §1, §2, §3, §4

The test system of the next assay is NCI-N87. The assay is described as above. To be noted: Homo sapiens, NCI-N87, 96 h, read-out: NCI-N87 IC50.
Excerpt: as §1, §2, §3, §4

The next assay has as its system A375. Described as above. The following applies: Homo sapiens, A-375, 96 h, read-out: A375 IC50.
Excerpt: as §1, §2, §3, §4

Another assay concerns NCI-H1703. The description is as above. The following applies: Homo sapiens, NCI-H1703, 96 h, read-out: NCI-H1703 IC50.
Excerpt: as §1, §2, §3, §4

For assay [3], the system named is T47D. Nature of the assay: cells. The following applies: Homo sapiens, 120 h, read-out: T47D IC50. Here is the method: (§5) Test Example 2 In vitro proliferation inhibition assay of the camptothecin derivatives (Payload) of the present invention on tumor cells 1. Instruments and Reagents
(§6) 2. Experimental Procedure • a. Plating & culture: MDA-MB-453 (purchased from: Xiehe, catalog number: 1101HUM-PUMCO00016)/T47D (Kebai, CBP60397)/HT1376 cells (purchased from: Kebai, catalog number: CBP60310) were cultured into 96-well plates by a density of 1×10^3 /2×10^3 /1×10^3 cells per100 µL, and 200 µL of PBS was added to the outermost circle (to reduce the volatilization of the culture medium), and cultured at 37°C, 5% CO2 incubator for 24 h; • b. Drug Addition & Incubation: The 96-well flat-bottom plate was retrieved. The culture medium in the wells was aspirated, and 100 µL of the ADC drug/payload (diluted in culture medium) was added to each well. The plate was then incubated at 37°C, 5% CO2 incubator for 5 days. 3. Detection and data processing • a. The 96-well plate was retrieved. The culture medium was removed, and 100 µL of detection reagent (CCK8:medium= 1:9) was added to each well. The plate was then placed in a 37°C, 5% CO2 incubator for 4 hours; • b. The optical density (OD) at 450 nm was measured using a microplate reader (model: CEY0017), and the data was recorded with Excel. • c. Graphpad Prism 9.0 was used to analyze and organize the data.

The next assay deals with HT1376. In words: In vitro proliferation inhibition assay of camptothecin derivatives (Payload), Test Example 2. To be noted: Homo sapiens, HT-1376, 120 h, read-out: HT1376 IC50. Here is the method:
as §5, §6

Assay [4] relates to MDA-MB-453. The assay is described as above. To be noted: Homo sapiens, MDA-MB-453, 120 h, read-out: MDA-MB-453 IC50. Here is the method: as §5, §6
The mark [5] stands for this setting: payload, cultured 4 days, CCK-8.
The mark [6] stands for this setting: payload, cultured 4 days, CCK-8, read-out: T47D IC50.
Setting [7] is: payload, cultured 4 days, CCK-8, ~ indicates estimated IC50 value.

Take `CCC1(O)CC(=O)OCc2c1cc1n(c2=O)Cc2c-1nc1cc(F)c(F)cc1c2CN` (stereo not drawn) [Example 49]: the IC50 – broadly, the point on the concentration scale where inhibition reaches its midpoint – was determined as 24.5 nM in the assay with MDA-MB-453 [1] (setting [5]) and 11 nM in the assay with T47D [2] (setting [6]).
As to `CC[C@@]1(OC(=O)CCN2CCN(C)CC2)C(=O)OCc2c1cc1n(c2=O)Cc2c-1nc1cc(F)c(C)c3c1c2[C@@H](N)CC3` [Compound 2], the IC50 with SK-BR-3 (setting [5]) came to 1.56 nM; with NCI-N87 (setting [5]), 3.75 nM.
For `CCC1(OC(=O)Cc2ccc(OC3OC(CO)C(O)C(O)C3O)cc2)C(=O)OCc2c1cc1n(c2=O)Cc2c-1nc1cc(F)c(C)c3c1c2C(N)CC3` (stereo not drawn) [Compound 3], the figures for the IC50 in the assay on SK-BR-3 and in the assay on NCI-N87 were 1.04 nM and 1.91 nM, respectively.
Consider `CC[C@@]1(O)C(=O)OCc2c1cc1n(c2=S)Cc2cc3cc(N)c(F)cc3nc2-1` [Example 46], for which the IC50 in the assay on SK-BR-3 came to 0.0155 nM; with NCI-N87 it was 0.229 nM.
For `CC[C@@]1(OC(=O)Cn2cc(F)c(=O)[nH]c2=O)C(=O)OCc2c1cc1n(c2=O)Cc2c-1nc1cc(F)c(C)c3c1c2[C@@H](N)CC3` [Compound 6], the IC50 with SK-BR-3 (setting [5]) was 1.23 nM; with A375 (setting [7]), 0.164 nM; with NCI-H1703 (setting [5]) it was 0.59 nM; in the assay with NCI-N87 (setting [5]), 2.23 nM; in the assay on MDA-MB-453 [1] (setting [5]), 4.24 nM; in the assay with T47D [2] (setting [6]), 0.742 nM.
Turning to `CC[C@@]1(O)C(=O)OCc2c1cc1n(c2=O)Cc2c-1nc1cc(F)c(C)c3c1c2[C@@H](NC(=O)CO)CC3` [DXD, Dxd, reference compound], the IC50 in the assay with SK-BR-3 is 3.62 nM; in the assay on A375, 0.131 nM; in the assay on NCI-H1703 it was 0.472 nM; in the assay with NCI-N87, 5.97 nM; with MDA-MB-453 [1], 2.87 nM; in the assay on T47D [2] (read-out: T47D IC50), 1.02 nM.
Consider `CC[C@@]1(OC(=O)CCN2C(=O)c3ccccc3C2=O)C(=O)OCc2c1cc1n(c2=O)Cc2c-1nc1cc(F)c(C)c3c1c2[C@@H](N)CC3` [Compound 4], for which the concentration for half-maximal inhibition (IC50) in the assay on SK-BR-3 (setting [5]) stood at 183 nM; in the assay with NCI-N87 (setting [5]), 381 nM.
`CC[C@@]1(OC(=O)COc2ccc(Cl)cc2C)C(=O)OCc2c1cc1n(c2=O)Cc2c-1nc1cc(F)c(C)c3c1c2[C@@H](N)CC3` [Compound 9]: the figures for the IC50 in the assay with NCI-H1703 (setting [5]), in the assay with MDA-MB-453 [1] (setting [5]) and with T47D [2] (setting [6]) were 0.149 nM, 3.86 nM and 0.804 nM, respectively.
On to `CCC1(O)CC(=O)OCc2c1cc1n(c2=O)Cc2c-1nc1cc(F)c(C)cc1c2CCCCO` (stereo not drawn) [Example 48], for which the half-maximal inhibitory concentration (IC50) in the assay on MDA-MB-453 [1] (setting [5]) worked out at 17.7 nM; in the assay with T47D [2] (setting [6]), 0.832 nM.
For `CCC1(O)CC(=O)OCc2c1cc1n(c2=O)Cc2c-1nc1cc(F)c(C)cc1c2CN` (stereo not drawn) [Example 47], the IC50 amounted to 4.37 nM in the assay on MDA-MB-453 [1] (setting [5]) and 0.956 nM in the assay with T47D [2] (setting [6]).
For the compound `CC[C@@]1(O)C(=O)OCc2c1cc1n(c2=S)Cc2c-1nc1cc(F)c(C)cc1c2CN` [Compound 11], the IC50 is 0.906 nM in the assay with SK-BR-3; 1.56 nM with NCI-N87; 0.141 nM with T47D [3]; 3.85 nM in the assay on HT1376; 0.645 nM with MDA-MB-453 [4].
In the case of `CC[C@@]1(O)C(=O)OCc2c1cc1n(c2=S)Cc2c-1nc1cc(F)c(C)cc1c2CNC(=O)CO` [Compound 17], the half-inhibitory concentration (IC50) in the assay on SK-BR-3 came to 0.675 nM; with NCI-N87, 0.999 nM; in the assay on MDA-MB-453 [1], 1.14 nM; in the assay on T47D [2] (read-out: T47D IC50), 0.172 nM.
As for `CC[C@@]1(O)C(=O)OCc2c1cc1n(c2=O)Cc2c-1nc1cc(F)c(C)c3c1c2[C@@H](N)CC3` [EXD, Exatecan, reference compound], the half-maximal inhibitory concentration (IC50) with SK-BR-3 is 0.866 nM; in the assay on NCI-H1703, 0.00789 nM; with NCI-N87 it was 1.45 nM; in the assay with MDA-MB-453 [1], 1.02 nM; in the assay with T47D [3], 0.221 nM; with HT1376, 8.71 nM. Besides, the IC50 in the assay with MDA-MB-453 [4] is 0.902 nM; in the assay with T47D [2] (read-out: T47D IC50), 0.729 nM.
Take `CC[C@@]1(OC(=O)CCOCCOCCOCCOC)C(=O)OCc2c1cc1n(c2=O)Cc2c-1nc1cc(F)c(C)c3c1c2[C@@H](N)CC3` [Compound 7]: the IC50 in the assay on A375 (setting [7]) is 0.714 nM; in the assay on NCI-H1703 (setting [5]), 0.064 nM; with MDA-MB-453 [1] (setting [5]), 570 nM; in the assay with T47D [2] (setting [6]), 245 nM.
For the compound `CCc1c2c(nc3ccc(O)cc13)-c1cc3c(c(=O)n1C2)COC(=O)[C@]3(O)CC` [SN38, SN-38, reference compound], the IC50 came out at 2.51 nM in the assay on SK-BR-3 (setting [5]), 5.38 nM in the assay with NCI-N87 (setting [5]), 32.8 nM with MDA-MB-453 [1] (setting [5]) and 2.11 nM with T47D [2] (read-out: T47D IC50).
